Converted amounts (≈) assume the structure as drawn. Like-named read-outs stand apart in the source and are kept apart here.
Experiments:
Type in all cases: cell-based
[1] = test system: Bacteroides thetaiotaomicron ATCC 29741; assay: in vitro antibacterial activity on anaerobic bacteria (MIC)
Method: (§1) The in vitro antibacterial activities of the compounds provided by the present invention were tested by a standard method of Chemotherapy Society of Japan, i.e. an agar plate dilution method disclosed in CHEMOTHERAPY Vol. 29, pages 76–79, 1981, and the activities of them on anaerobic bacteria were tested by a method disclosed in CHEMOTHERAPY Vol. 27, 559–590, 1979. The results were shown in terms of the minimum inhibition concentration (MIC, μg/ml) for the growth of the bacteria.

[2] = test system: Propionibacterium acnes JCM 6425; assay: as above; details: Cutibacterium acnes, JCM6425; Propionibacterium acnes JCM 6425, anaerobic; read-out: Antimicrobial spectrum MIC
Method: as §1

[3] = test system: Bacteroides fragilis GAI 0675; assay: as above; details: GAI0675; Bacteroides fragilis GAI 0675, anaerobic; read-out: Antimicrobial spectrum MIC
Method: as §1

[4] = test system: Haemophilus influenzae IID 984; assay: in vitro antibacterial activity, agar plate dilution method (MIC); details: IID984, read-out: Antimicrobial spectrum MIC
Method: as §1

[5] = test system: Bacillus subtilis JCM 2499; assay: as above; details: JCM2499, read-out: Antimicrobial spectrum MIC
Method: as §1

[6] = test system: Staphylococcus aureus JCM 2874; assay: as above; details: JCM2874, read-out: Antimicrobial spectrum MIC
Method: as §1

[7] = test system: Staphylococcus aureus IFO 13276; assay: as above; details: IFO13276, read-out: Antimicrobial spectrum MIC
Method: as §1

[8] = test system: Enterococcus faecalis RIMD 3116001; assay: as above; details: RIMD3116001, read-out: Antimicrobial spectrum MIC
Method: as §1

[9] = test system: Enterococcus faecalis CSJ 1212; assay: as above; details: CSJ1212, read-out: Antimicrobial spectrum MIC
Method: as §1

[10] = test system: Staphylococcus epidermidis IFO 12993; assay: as above; details: IFO12993, read-out: Antimicrobial spectrum MIC
Method: as §1

[11] = test system: Klebsiella pneumoniae IID 865; assay: as above; details: IID865, read-out: Antimicrobial spectrum MIC
Method: as §1

[12] = test system: Pseudomonas aeruginosa CSJ 1853; assay: as above; details: CSJ1853, read-out: Antimicrobial spectrum MIC
Method: as §1

[13] = test system: Staphylococcus aureus Clin-211(MRSA); assay: as above; details: read-out: Antimicrobial spectrum MIC
Method: as §1

[14] = test system: Branhamella catarrhalis IID 5233; assay: as above; details: Moraxella catarrhalis, IID5233, read-out: Antimicrobial spectrum MIC
Method: as §1

[15] = test system: Escherichia coli IFO 12734; assay: as above; details: IFO12734, read-out: Antimicrobial spectrum MIC
Method: as §1

[16] = test system: Micrococcus luteus KI 3122; assay: as above; details: KI3122, read-out: Antimicrobial spectrum MIC
Method: as §1

[17] = test system: Streptococcus pneumoniae IID 553; assay: as above; details: IID553, read-out: Antimicrobial spectrum MIC
Method: as §1

[18] = test system: Staphylococcus aureus IID 803(Smith); assay: as above; details: IID803, read-out: Antimicrobial spectrum MIC
Method: as §1

[19] = ATCC29741, Bacteroides thetaiotaomicron ATCC 29741, anaerobic, read-out: Antimicrobial spectrum MIC

MIC [1, 19] [µg/mL]	MIC [2] [µg/mL]	MIC [3] [µg/mL]	MIC [4] [µg/mL]	MIC [5] [µg/mL]	MIC [6] [µg/mL]	MIC [7] [µg/mL]	MIC [8] [µg/mL]	MIC [9] [µg/mL]	MIC [10] [µg/mL]	MIC [11] [µg/mL]	MIC [12] [µg/mL]	MIC [13] [µg/mL]	MIC [14] [µg/mL]	MIC [15] [µg/mL]	MIC [16] [µg/mL]	MIC [17] [µg/mL]	MIC [18] [µg/mL]	Structure (SMILES)	MIC ([1]; Bacteroides thetaiotaomicron, ATCC29741, read-out: Antimicrobial spectrum MIC) [µg/mL]
0.25 (≈ 0.718 µM)	0.031 (≈ 0.089 µM)	0.063 (≈ 0.181 µM)	0.125 (≈ 0.359 µM)	≤ 0.004	0.008 (≈ 0.023 µM)	0.008 (≈ 0.023 µM)	1 (≈ 2.87 µM)	0.5 (≈ 1.44 µM)	0.016 (≈ 0.0459 µM)	0.016 (≈ 0.0459 µM)	1 (≈ 2.87 µM)	0.063 (≈ 0.181 µM)	0.063 (≈ 0.181 µM)	0.125 (≈ 0.359 µM)	0.125 (≈ 0.359 µM)	1 (≈ 2.87 µM)	0.008 (≈ 0.023 µM)	Cc1ccc(-c2ccn3c(=O)c(C(=O)O)cc(C4CC4)c3c2C)cc1N [Example 63, 8-(3-Amino-4-methylphenyl)-1-cyclopropyl-9-methyl-4-oxo-4H-quinolizine-3-carboxylic acid]	
1 (≈ 2.98 µM)	0.5 (≈ 1.49 µM)	0.5 (≈ 1.49 µM)	0.031 (≈ 0.0924 µM)	0.016 (≈ 0.0477 µM)	0.063 (≈ 0.188 µM)	0.031 (≈ 0.0924 µM)	0.5 (≈ 1.49 µM)	0.25 (≈ 0.745 µM)	0.125 (≈ 0.373 µM)	0.016 (≈ 0.0477 µM)	1 (≈ 2.98 µM)	0.5 (≈ 1.49 µM)	0.125 (≈ 0.373 µM)	0.25 (≈ 0.745 µM)	0.5 (≈ 1.49 µM)	0.5 (≈ 1.49 µM)	0.063 (≈ 0.188 µM)	Cc1c(-c2ccc(N)nc2)ccn2c(=O)c(C(=O)O)cc(C3CC3)c12 [Example 89, 8-(6-Aminopyridin-3-yl)-1-cyclopropyl-9-methyl-4-oxo-4H-quinolizine-3-carboxylic acid]	
1 (≈ 2.66 µM)	0.5 (≈ 1.33 µM)	0.5 (≈ 1.33 µM)	0.063 (≈ 0.167 µM)	0.031 (≈ 0.0823 µM)	0.125 (≈ 0.332 µM)	0.063 (≈ 0.167 µM)	1 (≈ 2.66 µM)	0.5 (≈ 1.33 µM)	0.125 (≈ 0.332 µM)	0.031 (≈ 0.0823 µM)	1 (≈ 2.66 µM)	1 (≈ 2.66 µM)	0.125 (≈ 0.332 µM)	0.5 (≈ 1.33 µM)	1 (≈ 2.66 µM)	0.5 (≈ 1.33 µM)	0.063 (≈ 0.167 µM)	Cc1c(-c2cccc(CN(C)C)c2)ccn2c(=O)c(C(=O)O)cc(C3CC3)c12 [Example 117, 1-Cyclopropyl-8-(3-dimethylaminomethylphenyl)-9-methyl-4-oxo-4H-quinolizine-3-carboxylic acid]	
2 (≈ 4.79 µM)	2 (≈ 4.79 µM)	1 (≈ 2.4 µM)	0.25 (≈ 0.599 µM)	0.016 (≈ 0.0383 µM)	0.063 (≈ 0.151 µM)	0.063 (≈ 0.151 µM)	1 (≈ 2.4 µM)	0.5 (≈ 1.2 µM)	0.125 (≈ 0.299 µM)	0.063 (≈ 0.151 µM)	4 (≈ 9.58 µM)	1 (≈ 2.4 µM)	0.25 (≈ 0.599 µM)	1 (≈ 2.4 µM)	1 (≈ 2.4 µM)	0.5 (≈ 1.2 µM)	0.063 (≈ 0.151 µM)	Cc1c(-c2cccc(CN3CCNCC3)c2)ccn2c(=O)c(C(=O)O)cc(C3CC3)c12 [Example 119, 1-Cyclopropyl-9-methyl-4-oxo-8-(3-piperazin-1-ylmethylphenyl)-4H-quinolizine-3-carboxylic acid]	
4 (≈ 10.6 µM)	0.25 (≈ 0.661 µM)	0.5 (≈ 1.32 µM)	0.008 (≈ 0.0211 µM)	≤ 0.004	0.016 (≈ 0.0423 µM)	0.016 (≈ 0.0423 µM)	0.063 (≈ 0.166 µM)	0.031 (≈ 0.0819 µM)	0.031 (≈ 0.0819 µM)	≤ 0.004	0.5 (≈ 1.32 µM)	0.25 (≈ 0.661 µM)	0.063 (≈ 0.166 µM)	0.063 (≈ 0.166 µM)	0.125 (≈ 0.33 µM)	0.031 (≈ 0.0819 µM)	0.016 (≈ 0.0423 µM)	COc1ccc(-c2ccn3c(=O)c(C(=O)O)cc(C4CC4)c3c2C)cc1CN [Example 121, 8-(3-Aminomethyl-4-methoxyphenyl)-1-cyclopropyl-9-methyl-4-oxo-4H-quinolizine-3-carboxylic acid]	

Structure (SMILES)	MIC [1, 19] [µg/mL]	MIC [2] [µg/mL]	MIC [3] [µg/mL]	MIC [4] [µg/mL]	MIC [5] [µg/mL]	MIC [6] [µg/mL]	MIC [7] [µg/mL]	MIC [8] [µg/mL]	MIC [9] [µg/mL]	MIC [10] [µg/mL]	MIC [11] [µg/mL]	MIC [12] [µg/mL]	MIC [13] [µg/mL]	MIC [14] [µg/mL]	MIC [15] [µg/mL]	MIC [16] [µg/mL]	MIC [17] [µg/mL]	MIC [18] [µg/mL]	MIC ([1]; Bacteroides thetaiotaomicron, ATCC29741, read-out: Antimicrobial spectrum MIC) [µg/mL]
C[C@H]1COc2c(N3CCN(C)CC3)c(F)cc3c(=O)c(C(=O)O)cn1c23 [Levofloxacin, reference compound]		0.25 (≈ 0.692 µM)	0.5 (≈ 1.38 µM)	0.016 (≈ 0.0443 µM)	0.031 (≈ 0.0858 µM)	0.25 (≈ 0.692 µM)	0.125 (≈ 0.346 µM)	1 (≈ 2.77 µM)	0.5 (≈ 1.38 µM)	0.25 (≈ 0.692 µM)	0.008 (≈ 0.0221 µM)	0.5 (≈ 1.38 µM)	4 (≈ 11.1 µM)	0.031 (≈ 0.0858 µM)	0.031 (≈ 0.0858 µM)	1 (≈ 2.77 µM)	0.5 (≈ 1.38 µM)	0.125 (≈ 0.346 µM)	4 (≈ 11.1 µM)

Reference: patent publication US7223773B2, “4-oxoquinolizine antibacterial agent having 2-pyridone skeleton as partial structure” (Salo Pharmaceutical Co., Ltd., priority 2001, dated 2007)
